The structures appear in SMILES notation.

The IC50 is the point on the concentration scale where inhibition reaches its midpoint. A low value points to inhibition by little substance.

Assay [1] deals with T1, Avi-KRAS G12D (1-169) GppNHp/RAF1 RBD-3xFLAG (52-151) (Homo sapiens, UniProt P01116, G12D).
T1 construct: Avi-KRAS G12D (1-169)
Kind of assay: Raf1-KRAS G12D-GppNHP disruption HTRF assay (Biological Example 1). The format is binding. A digest of the protocol:
(§1)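 Compounds were tested for disruption of KRAS–RAF1 RBD binding by HTRF in 50 mM Tris pH 7.5, 100 mM NaCl, 5 mM MgCl2, 0.1% BSA, 0.01% Tween, 10% DMSO. Protein mix was incubated 1 h at room temperature with shaking, then detection reagents added for another 1 h. Activity expressed as percent of DMSO control.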
Background: Time-resolved FRET reads energy transfer from a long-lived donor to a nearby acceptor.

Assay [2] deals with T2, Avi-KRAS G12R (1-169) GppNHp/RAF1 RBD-3xFLAG (52-151) (Homo sapiens, UniProt P01116, G12R).
T2 construct: Avi-KRAS G12R (1-169)
Briefly: Raf1-KRAS G12R-GppNHP disruption HTRF assay (Biological Example 1). The format is binding. A digest of the protocol: as §1

Assay [3] addresses T3, Avi-KRAS G12V (1-169) GppNHp/RAF1 RBD-3xFLAG (52-151) (Homo sapiens, UniProt P01116, G12V).
T3 construct: Avi-KRAS G12V (1-169)
Briefly: Raf1-KRAS G12V-GppNHP disruption HTRF assay (Biological Example 1). The format is binding. A digest of the protocol: as §1

In assay [4] the target is T4, Avi-KRAS WT (1-169) GppNHp/RAF1 RBD-3xFLAG (52-151) (Homo sapiens, UniProt P01116).
T4 construct: Avi-KRAS WT (1-169)
Briefly: Raf1-KRAS WT-GppNHP disruption HTRF assay (Biological Example 1). The format is binding. A digest of the protocol: as §1

For another assay, the system named is GP2d cells (KRAS G12D). Briefly: Cell-based pERK HTRF assay in GP2d cell (Biological Example 2). The settings on record: GP2d (KRAS G12D) cells, pERK HTRF. A digest of the protocol:
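Cells grown in DMEM with 10% FBS were exposed to compound for 60 min at 0.25% DMSO, using a 9-point half-log series starting at 1 μM or 100 nM. Lysates were then mixed with d2 and Eu cryptate antibodies for 4–24 h at room temperature, and pERK was read by HTRF.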

The next assay deals with SW620 cells (KRAS G12V). Kind of assay: Cell-based pERK HTRF assay in SW620 cell (Biological Example 4). The settings on record: pERK HTRF. A digest of the protocol: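 SW620 cells were treated for 4 h with compound in a 9-point half-log series from 1 μM top (0.25% DMSO), then lysed. Phospho-ERK was detected by HTRF with d2 and Eu cryptate antibodies after 4–24 h at room temperature, read at 615 nm emission.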

[5] abbreviates: Homo sapiens, SW-620, SW620 (KRAS G12V) cells.
Where [6] appears, read: KRAS G12D, GppNHp-loaded, class symbols.
[7] abbreviates: KRAS G12R, GppNHp-loaded, class symbols.
The mark [8] stands for this setting: KRAS G12V, GppNHp-loaded, class symbols.
Where [9] appears, read: KRAS WT, GppNHp-loaded, class symbols.
[10] abbreviates: Homo sapiens, SW-620, SW620 (KRAS G12V) cells, class symbols.
The mark [11] stands for this setting: KRAS G12D, GppNHp-loaded, Table 11.
Setting [12] is: KRAS G12R, GppNHp-loaded, Table 11.
Setting [13] is: KRAS G12V, GppNHp-loaded, Table 11.
Where [14] appears, read: KRAS WT, GppNHp-loaded, Table 11.

T3 sequence (P01116 1-169 isoform P01116-2 G12V): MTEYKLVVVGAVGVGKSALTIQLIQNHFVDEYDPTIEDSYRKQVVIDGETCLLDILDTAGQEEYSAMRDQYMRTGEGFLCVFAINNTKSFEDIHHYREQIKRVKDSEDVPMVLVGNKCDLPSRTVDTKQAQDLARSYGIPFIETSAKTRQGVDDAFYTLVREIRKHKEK
T1 sequence (P01116 1-169 isoform P01116-2 G12D): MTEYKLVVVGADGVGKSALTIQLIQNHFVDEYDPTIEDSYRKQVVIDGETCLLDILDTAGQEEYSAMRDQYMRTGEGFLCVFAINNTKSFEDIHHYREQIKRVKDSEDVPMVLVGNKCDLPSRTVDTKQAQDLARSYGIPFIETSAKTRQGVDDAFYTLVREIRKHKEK
T2 sequence (P01116 1-169 isoform P01116-2 G12R): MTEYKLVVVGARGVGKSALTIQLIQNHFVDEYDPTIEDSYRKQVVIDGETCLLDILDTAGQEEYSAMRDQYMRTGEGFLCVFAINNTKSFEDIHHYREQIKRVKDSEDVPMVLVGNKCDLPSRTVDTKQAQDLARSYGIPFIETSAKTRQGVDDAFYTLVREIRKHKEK
T4 sequence (P01116 1-169 isoform P01116-2): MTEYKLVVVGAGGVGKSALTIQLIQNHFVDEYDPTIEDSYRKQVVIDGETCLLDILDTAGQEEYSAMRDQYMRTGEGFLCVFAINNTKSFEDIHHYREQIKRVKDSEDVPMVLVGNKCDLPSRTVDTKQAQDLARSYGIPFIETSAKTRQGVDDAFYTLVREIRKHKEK

`CCC(=O)N1C[C@@H](N(C)c2nc(OC[C@@]34CCCN3C[C@H](F)C4)nc3c(F)c(-c4ccc(F)c5sc(N)c(C#N)c45)c(C(F)(F)F)cc23)C[C@@H]1C` [Compound 435]: the 50% inhibitory concentration (IC50) in assay [1] (KRAS G12D-GppNHp/RAF1 RBD HTRF) was 100 to 1000 nM; in assay [2] (KRAS G12R-GppNHp/RAF1 RBD HTRF), 100 to 1000 nM; in assay [3] (KRAS G12V-GppNHp/RAF1 RBD HTRF), 100 to 1000 nM; in assay [4] (KRAS WT-GppNHp/RAF1 RBD HTRF) it was 100 to 1000 nM; in the assay with GP2d cells (KRAS G12D) (GP2d), below 100 nM; with SW620 cells (KRAS G12V) (setting [5]), below 100 nM.

Consider `CCN(c1nc(OC[C@@]23CCCN2C[C@H](F)C3)nc2c(F)c(-c3ccc(F)c4sc(N)c(C#N)c34)c(C(F)(F)F)cc12)[C@H]1CCN(C(=O)[C@@H]2CC2(F)F)[C@@H]1C` (atropisomer, axis not shown) [Compound 693], for which the concentration for half-maximal inhibition (IC50) in assay [1] (setting [6]) was below 100 nM; in assay [2] (setting [7]), below 100 nM; in assay [3] (setting [8]), below 100 nM; in assay [4] (setting [9]), below 100 nM; in the assay with GP2d cells (KRAS G12D) (GP2d, class symbols) it was below 100 nM; in the assay on SW620 cells (KRAS G12V) (setting [10]), below 100 nM.

For `CC(=O)N1C[C@@H](N(C)c2nc(OC[C@@]34CCCN3C[C@H](F)C4)nc3c(F)c(-c4ccc(F)c5sc(N)c(C#N)c45)c(C(F)(F)F)cc23)C[C@@H]1C` [Compound 279], the IC50 was below 100 nM in assay [1] (KRAS G12D-GppNHp/RAF1 RBD HTRF); 100 to 1000 nM in assay [2] (KRAS G12R-GppNHp/RAF1 RBD HTRF); 100 to 1000 nM in assay [3] (KRAS G12V-GppNHp/RAF1 RBD HTRF); 100 to 1000 nM in assay [4] (KRAS WT-GppNHp/RAF1 RBD HTRF); below 100 nM in the assay on GP2d cells (KRAS G12D) (GP2d); below 100 nM with SW620 cells (KRAS G12V) (setting [5]).

As to `CCN(c1nc(OC[C@@]23CCCN2C[C@H](F)C3)nc2c(F)c(-c3ccc(F)c4sc(N)c(C#N)c34)c(C(F)(F)F)cc12)[C@H]1CCN(C(C)=O)[C@@H]1C` (atropisomer, axis not shown) [Compound 591], the IC50 was below 100 nM in assay [1] (setting [6]); below 100 nM in assay [2] (setting [7]); below 100 nM in assay [3] (setting [8]); below 100 nM in assay [4] (setting [9]); below 100 nM with GP2d cells (KRAS G12D) (GP2d, class symbols); below 100 nM in the assay on SW620 cells (KRAS G12V) (setting [10]).

Take `CN(C)C(=O)N1CC[C@H](N(c2nc(OC[C@@]34CCCN3C[C@H](F)C4)nc3c(F)c(-c4ccc(F)c5sc(N)c(C#N)c45)c(C(F)(F)F)cc23)C2CC2)C1` (atropisomer, axis not shown) [Compound 743]: the IC50 was 100 to 1000 nM in assay [1] (setting [6]); 100 to 1000 nM in assay [2] (setting [7]); 100 to 1000 nM in assay [3] (setting [8]); 100 to 1000 nM in assay [4] (setting [9]); below 100 nM in the assay with GP2d cells (KRAS G12D) (GP2d, class symbols); below 100 nM with SW620 cells (KRAS G12V) (setting [10]).

For the compound `N#Cc1c(N)sc2c(F)ccc(-c3c(C(F)(F)F)cc4c(N5CCCC6(C5)NC(=O)NC6=O)nc(OC[C@@]56CCCN5C[C@H](F)C6)nc4c3F)c12` (stereo partly drawn) [Compound 248], the IC50 (in assay [1] (setting [11]); in assay [2] (setting [12]); in assay [3] (setting [13]); in assay [4] (setting [14]); with GP2d cells (KRAS G12D) (GP2d); with SW620 cells (KRAS G12V) (setting [5])) was 100 to 1000 nM each time.

In the case of `CC1c2cc(C(=O)N(C)C)nn2CCN1c1nc(OCC23CCCN2CC(F)C3)nc2c(F)c(-c3ccc(F)c4sc(N)c(C#N)c34)c(C(F)(F)F)cc12` (stereo not drawn) [Compound 568], the IC50 in assay [1] (setting [6]) was 1000 to 10000 nM; in assay [2] (setting [7]), 100 to 1000 nM; in assay [3] (setting [8]), 100 to 1000 nM; in assay [4] (setting [9]) it was 1000 to 10000 nM; with GP2d cells (KRAS G12D) (GP2d, class symbols) it was below 100 nM; in the assay with SW620 cells (KRAS G12V) (setting [10]), below 100 nM.

For `N#Cc1c(N)sc2c(F)ccc(-c3c(C(F)(F)F)cc4c(N5CCCC6(CC(O)C6)C5)nc(OC[C@@]56CCCN5C[C@H](F)C6)nc4c3F)c12` (stereo partly drawn) [Compound 231], the IC50 was 1000 to 10000 nM in assay [1] (setting [11]); 1000 to 10000 nM in assay [2] (setting [12]); above 10000 nM in assay [3] (setting [13]); 1000 to 10000 nM in assay [4] (setting [14]); 100 to 1000 nM in the assay with GP2d cells (KRAS G12D); 100 to 1000 nM in the assay with SW620 cells (KRAS G12V) (SW620 (KRAS G12V) cells).

As to `CCC(=O)N1CC[C@@H]2[C@H]1CN2c1nc(OC[C@@]23CCCN2C[C@H](F)C3)nc2c(F)c(-c3ccc(F)c4sc(N)c(C#N)c34)c(C(F)(F)F)cc12` [Compound 515], the 50% inhibitory concentration (IC50) in assay [1] (KRAS G12D-GppNHp/RAF1 RBD HTRF) was 100 to 1000 nM; in assay [2] (KRAS G12R-GppNHp/RAF1 RBD HTRF) it was 100 to 1000 nM; in assay [3] (KRAS G12V-GppNHp/RAF1 RBD HTRF), 100 to 1000 nM; in assay [4] (KRAS WT-GppNHp/RAF1 RBD HTRF), 100 to 1000 nM; in the assay on GP2d cells (KRAS G12D) (GP2d), below 100 nM; with SW620 cells (KRAS G12V) (setting [5]), below 100 nM.

These data come from patent US20260042764A1, “COMPOSITIONS AND METHODS FOR INHIBITION OF KRAS” (TheRas, Inc., priority 2022, published 2026).
